According to patent publication US10081631B2, “2-(1H-indazol-3-yl)-1H-imidazo[4,5-C]pyridine and therapeutic uses thereof” (Samumed, LLC, priority 2014, dated 2018):

The molecules below were run on Wnt activity (Sp5-Luc reporter, SW480 colon carcinoma cells) (assay: Screening assay for Wnt activity: Sp5-Luc reporter gene assay in SW480 cells). Conditions: Homo sapiens, 42 h incubation, luminescence.
Type: cell-based
Text: The screening assay for Wnt activity is described as follows. Reporter cell lines can be generated by stably transducing cancer cell lines (e.g., colon cancer) or primary cells (e.g., IEC-6 intestinal cells) with a lentiviral construct that includes a Wnt-responsive promoter driving expression of the firefly luciferase gene.
SW480 colon carcinoma cells were transduced with a lentiviral vector expressing luciferase with a human Sp5 promoter consisting of a sequence of eight TCF/LEF binding sites. SW480 cells stably expressing the Sp5-Luc reporter gene and a hygromycin resistance gene were selected by treatment with 150 μg/ml of hygromycin for 7 days. These stably transduced SW480 cells were expanded in cell culture and used for all further screening activities. For Sp5-Luc reporter gene assays, the cells were plated at 10,000 cells/well in 96-well plates with growth medium containing 10% fetal calf serum and incubated overnight at 37° C. and 5% CO2. Each compound was dissolved in DMSO as a 10 mM stock in standard j-vials and used to prepare compound source plates in dose-response format with 3-fold serial dilutions and a 10 mM top concentration. Compound transfer from serially diluted source plates to assay plates containing the cells was accomplished using a pintool (Multimek 96, Beckman equipped with V&P Scientific FP1S50H pins) based liquid handling protocol. This protocol used a slotted pin to transfer 50 nl of compound from a source plate well to an assay plate well containing 50 μl of cells in growth medium. […] Control wells received 50 nl of DMSO treatment for normalization and calculating IC50 values. The treated cells were incubated at 37° C. and 5% CO2 for an additional forty-two hours. Following incubation, the growth medium was removed and 50 μl of BrightGlo luminescence reagent (Promega) was added to each well of the 96-well assay plates. The plates were placed on an orbital shaker for 5 min and then luminescence was quantified on the Victor3 (Perkin Elmer) plate reader. Readings were normalized to DMSO only treated cells, and normalized activities were utilized for IC50 calculations using the dose-response log (inhibitor) vs. response-variable slope (four parameters) nonlinear regression feature available in GraphPad Prism 5.0 or 6.0.

First: O=C(Cc1ccccc1)Nc1cncc(-c2ccc3[nH]nc(-c4nc5c(-c6ccncc6)nccc5[nH]4)c3c2)c1 [Compound 114, 2-Phenyl-N-(5-(3-(4-(pyridin-4-yl)-1H-imidazo[4,5-c]pyridin-2-yl)-1H-indazol-5-yl)pyridin-3-yl)acetamide]
Second: CCCC(=O)Nc1cncc(-c2ccc3[nH]nc(-c4nc5c(-c6ccncc6)nccc5[nH]4)c3c2)c1 [Compound 121, N-(5-(3-(4-(Pyridin-4-yl)-1H-imidazo[4,5-c]pyridin-2-yl)-1H-indazol-5-yl)pyridin-3-yl)butyramide]
The IC50 of the first is 2.8-fold lower: 0.036 µM for the first, 0.102 µM for the second. The first is the more potent here.

Going from `CN1CCN(c2nccc3[nH]c(-c4n[nH]c5ccc(-c6cccnc6)cc45)nc23)CC1` [Compound 212, 4-(4-Methylpiperazin-1-yl)-2-(5-(pyridin-3-yl)-1H-indazol-3-yl)-1H-imidazo [4,5-c]pyridine] to `CN1CCN(c2nccc3[nH]c(-c4n[nH]c5ccc(-c6cncc(F)c6)cc45)nc23)CC1` [Compound 2276, 2-(5-(5-Fluoropyridin-3-yl)-1H-indazol-3-yl)-4-(4-methylpiperazin-1-yl)-1H-imidazo[4,5-c]pyridine], the IC50 rises from 0.065 µM to 0.439 µM (6.8-fold). The first is the more potent here.

`CN1CCN(c2nccc3[nH]c(-c4n[nH]c5ccc(-c6cn[nH]c6)cc45)nc23)CC1` [Compound 1915, 2-(5-(1H-pyrazol-4-yl)-1H-indazol-3-yl)-4-(4-methylpiperazin-1-yl)-1H-imidazo[4,5-c]pyridine] and `CN1CCN(c2nccc3[nH]c(-c4n[nH]c5ccc(-c6cncc(N)c6)cc45)nc23)CC1` [Compound 211, 5-(3-(4-(4-Methylpiperazin-1-yl)-1H-imidazo[4,5-c]pyridin-2-yl)-1H-indazol-5-yl)pyridin-3-amine] are within 1.5-fold of each other in IC50: 0.07 µM for the first, 0.0971 µM for the second.

`Fc1cccc(-c2nccc3[nH]c(-c4n[nH]c5ccc(-c6cncc(OCCN7CCCC7)c6)cc45)nc23)c1` [Compound 1778, 4-(3-Fluorophenyl)-2-(5-(5-(2-(pyrrolidin-1-yl)ethoxy)pyridin-3-yl)-1H-indazol-3-yl)-1H-imidazo[4,5-c]pyridine] and `CC(C)CC(=O)Nc1cncc(-c2ccc3[nH]nc(-c4nc5c(-c6cc(F)cc(OCCN7CCCC7)c6)nccc5[nH]4)c3c2)c1` [Compound 2120, N-(5-(3-(4-(3-Fluoro-5-(2-(pyrrolidin-1-yl)ethoxy)phenyl)-1H-imidazo[4,5-c]pyridin-2-yl)-1H-indazol-5-yl)pyridin-3-yl)-3-methylbutanamide] are within 1.5-fold of each other in IC50: 0.28 µM for the first, 0.305 µM for the second.

First: CN(C)Cc1cncc(-c2cc(F)c3[nH]nc(-c4nc5c(-c6cccc(F)c6)nccc5[nH]4)c3c2)c1 [Compound 456, 1-(5-(7-Fluoro-3-(4-(3-fluorophenyl)-1H-imidazo[4,5-c]pyridin-2-yl)-1H-indazol-5-yl)pyridin-3-yl)-N,N-dimethylmethanamine]
Second: CN(C)Cc1cncc(-c2cc3c(-c4nc5c(-c6cccc(F)c6)nccc5[nH]4)n[nH]c3cc2F)c1 [Compound 898, 1-(5-(6-Fluoro-3-(4-(3-fluorophenyl)-1H-imidazo[4,5-c]pyridin-2-yl)-1H-indazol-5-yl)pyridin-3-yl)-N,N-dimethylmethanamine]
The IC50 of the first is 16-fold lower: 0.09 µM for the first, 1.45 µM for the second.

Going from `CN(C)Cc1cncc(-c2cc3c(-c4nc5c(-c6ccsc6)nccc5[nH]4)n[nH]c3cc2F)c1` [Compound 1132, 1-(5-(6-Fluoro-3-(4-(thiophen-3-yl)-1H-imidazo[4,5-c]pyridin-2-yl)-1H-indazol-5-yl)pyridin-3-yl)-N,N-dimethylmethanamine] to `CN(C)Cc1cncc(-c2cc(F)c3[nH]nc(-c4nc5c(-c6ccsc6)nccc5[nH]4)c3c2)c1` [Compound 688, 1-(5-(7-Fluoro-3-(4-(thiophen-3-yl)-1H-imidazo[4,5-c]pyridin-2-yl)-1H-indazol-5-yl)pyridin-3-yl)-N,N-dimethylmethanamine], the IC50 falls from 3.68 µM to 0.415 µM (8.9-fold). The second is the more potent here.

Going from `CC(C)Nc1cncc(-c2ccc3[nH]nc(-c4nc5c(N6CCCCC6)nccc5[nH]4)c3c2)c1` [Compound 168, N-Isopropyl-5-(3-(4-(piperidin-1-yl)-1H-imidazo[4,5-c]pyridin-2-yl)-1H-indazol-5-yl)pyridin-3-amine] to `Fc1cncc(-c2ccc3[nH]nc(-c4nc5c(N6CCC(F)(F)CC6)nccc5[nH]4)c3c2)c1` [Compound 2277, 4-(4,4-Difluoropiperidin-1-yl)-2-(5-(5-fluoropyridin-3-yl)-1H-indazol-3-yl)-1H-imidazo[4,5-c]pyridine], the IC50 rises from 0.0881 µM to 0.315 µM (3.6-fold). The first is the more potent here.

Compared with `CC(=O)c1ccc(-c2nccc3[nH]c(-c4n[nH]c5ccc(-c6cncc(NC(=O)CC(C)(C)C)c6)cc45)nc23)s1` [Compound 380, N-(5-(3-(4-(5-Acetylthiophen-2-yl)-1H-imidazo[4,5-c]pyridin-2-yl)-1H-indazol-5-yl)pyridin-3-yl)-3,3-dimethylbutanamide], `CC(C)CC(=O)Nc1cncc(-c2ccc3[nH]nc(-c4nc5c(-c6cc(O)cc(F)c6)nccc5[nH]4)c3c2)c1` [Compound 2164, N-(5-(3-(4-(3-Fluoro-5-hydroxyphenyl)-1H-imidazo[4,5-c]pyridin-2-yl)-1H-indazol-5-yl)pyridin-3-yl)-3-methylbutanamide] is 5.3-fold lower in IC50: 0.187 µM for the first, 0.035 µM for the second. The second is the more potent here.

Going from `COc1cc(F)cc(-c2nccc3[nH]c(-c4n[nH]c5ccc(-c6cncc(NC(=O)CC(C)C)c6)cc45)nc23)c1` [Compound 2208, N-(5-(3-(4-(3-Fluoro-5-methoxyphenyl)-1H-imidazo[4,5-c]pyridin-2-yl)-1H-indazol-5-yl)pyridin-3-yl)-3-methylbutanamide] to `CC(C)CC(=O)Nc1cncc(-c2ccc3[nH]nc(-c4nc5c(-c6cc(F)cc(OCCN(C)C)c6)nccc5[nH]4)c3c2)c1` [Compound 2076, N-(5-(3-(4-(3-(2-(Dimethylamino)ethoxy)-5-fluorophenyl)-1H-imidazo[4,5-c]pyridin-2-yl)-1H-indazol-5-yl)pyridin-3-yl)-3-methylbutanamide], the IC50 rises from 0.02 µM to 0.37 µM (18-fold).

Compared with `c1cncc(-c2ccc3[nH]nc(-c4nc5c(N6CCOCC6)nccc5[nH]4)c3c2)c1` [Compound 2272, 4-(2-(5-(Pyridin-3-yl)-1H-indazol-3-yl)-1H-imidazo[4,5-c]pyridin-4-yl) morpholine], `FC1(F)CCN(c2nccc3[nH]c(-c4n[nH]c5ccc(-c6cccnc6)cc45)nc23)CC1` [Compound 2273, 4-(4,4-Difluoropiperidin-1-yl)-2-(5-(pyridin-3-yl)-1H-indazol-3-yl)-1H-imidazo[4,5-c]pyridine] is 2.5-fold higher in IC50: 0.02 µM for the first, 0.05 µM for the second.

First: CN(C)Cc1cncc(-c2ccc3[nH]nc(-c4nc5c(-c6ccsc6)nccc5[nH]4)c3c2F)c1 [Compound 1573, 1-(5-(4-Fluoro-3-(4-(thiophen-3-yl)-1H-imidazo[4,5-c]pyridin-2-yl)-1H-indazol-5-yl)pyridin-3-yl)-N,N-dimethylmethanamine]
Second: CN(C)Cc1cncc(-c2ccc3[nH]nc(-c4nc5c(-c6cccc(F)c6)nccc5[nH]4)c3c2F)c1 [Compound 1339, 1-(5-(4-Fluoro-3-(4-(3-fluorophenyl)-1H-imidazo[4,5-c]pyridin-2-yl)-1H-indazol-5-yl)pyridin-3-yl)-N,N-dimethylmethanamine]
The IC50 of the first is 2.6-fold higher: 3.06 µM for the first, 1.18 µM for the second.

Compared with `Cc1ncc(-c2ccc3[nH]nc(-c4nc5c(-c6cccc(F)c6)nccc5[nH]4)c3c2)n1C` [Compound 1773, 2-(5-(1,2-Dimethyl-1H-imidazol-5-yl)-1H-indazol-3-yl)-4-(3-fluorophenyl)-1H-imidazo[4,5-c]pyridine], `Fc1cccc(-c2nccc3[nH]c(-c4n[nH]c5ccc(-c6cncc(OCc7ccccc7)c6)cc45)nc23)c1` [Compound 1782, 2-(5-(5-(Benzyloxy)pyridin-3-yl)-1H-indazol-3-yl)-4-(3-fluorophenyl)-1H-imidazo[4,5-c]pyridine] is 25-fold higher in IC50: 0.023 µM for the first, 0.575 µM for the second. The first is the more potent here.

Compared with `O=C(Nc1cncc(-c2ccc3[nH]nc(-c4nc5c(-c6ccccn6)nccc5[nH]4)c3c2)c1)c1ccccc1` [Compound 141, N-(5-(3-(4-(Pyridin-2-yl)-1H-imidazo[4,5-c]pyridin-2-yl)-1H-indazol-5-yl)pyridin-3-yl)benzamide], `CN(C)Cc1cncc(-c2cc3c(-c4nc5c(-c6cc(F)cc(CNS(C)(=O)=O)c6)nccc5[nH]4)n[nH]c3cc2F)c1` [Compound 1288, N-(3-(2-(5-(5-((Dimethylamino)methyl)pyridin-3-yl)-6-fluoro-1H-indazol-3-yl)-1H-imidazo[4,5-c]pyridin-4-yl)-5-fluorobenzyl)methanesulfonamide] is lower in IC50: > 10 µM for the first, 0.637 µM for the second. The second is the more potent here.

Going from `Cn1cc(-c2ccc3[nH]nc(-c4nc5c(N6CCC(F)(F)CC6)nccc5[nH]4)c3c2)cn1` [Compound 2281, 4-(4,4-Difluoropiperidin-1-yl)-2-(5-(1-methyl-1H-pyrazol-4-yl)-1H-indazol-3-yl)-1H-imidazo[4,5-c]pyridine] to `CN(C)Cc1cncc(-c2cc(F)c3[nH]nc(-c4nc5c(-c6cc(F)cc(CNS(C)(=O)=O)c6)nccc5[nH]4)c3c2)c1` [Compound 844, N-(3-(2-(5-(5-((Dimethylamino)methyl)pyridin-3-yl)-7-fluoro-1H-indazol-3-yl)-1H-imidazo[4,5-c]pyridin-4-yl)-5-fluorobenzyl)methanesulfonamide], the IC50 rises from 0.02 µM to 0.096 µM (4.8-fold). The first is the more potent here.
